One assay has as its target T1, human GCGR (Homo sapiens, UniProt P47871).
T1 construct: expressed in transfected cells; grown with Blasticidin and Hygromycin
Briefly: cAMP activity assay, cells expressing human GCGR.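 For all read-outs here: cAMP production read by luminescence after one hour of peptide exposure at room temperature, EC50 from logistic curve fit, native glucagon and GLP-1 as control peptides.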 Type of assay: cell-based. To be noted: for GCGR/GLP1R ratio: Table 5, ratio of hGCGR EC50 to hGLP1R EC50.

The target of a further assay is human GLP1R (Homo sapiens, UniProt P43220). Briefly: cAMP activity assay, cells expressing human GLP1R. Type of assay: cell-based.
human GLP1R, sequence (P43220 24-463): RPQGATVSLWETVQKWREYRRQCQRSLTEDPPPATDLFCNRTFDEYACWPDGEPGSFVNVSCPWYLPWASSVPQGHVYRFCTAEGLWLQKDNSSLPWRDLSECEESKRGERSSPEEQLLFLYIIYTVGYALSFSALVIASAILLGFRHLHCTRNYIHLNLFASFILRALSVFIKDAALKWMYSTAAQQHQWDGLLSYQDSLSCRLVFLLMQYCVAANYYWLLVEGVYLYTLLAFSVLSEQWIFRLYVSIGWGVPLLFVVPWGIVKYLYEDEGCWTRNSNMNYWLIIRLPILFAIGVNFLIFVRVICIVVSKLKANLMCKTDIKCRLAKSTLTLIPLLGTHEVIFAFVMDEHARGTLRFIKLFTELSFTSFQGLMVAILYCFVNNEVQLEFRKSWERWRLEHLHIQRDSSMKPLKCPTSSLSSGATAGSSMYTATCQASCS

Molecules are shown by their SMILES. Read-outs that look alike come from different tables or passages of the source.

T1 sequence (P47871 26-477): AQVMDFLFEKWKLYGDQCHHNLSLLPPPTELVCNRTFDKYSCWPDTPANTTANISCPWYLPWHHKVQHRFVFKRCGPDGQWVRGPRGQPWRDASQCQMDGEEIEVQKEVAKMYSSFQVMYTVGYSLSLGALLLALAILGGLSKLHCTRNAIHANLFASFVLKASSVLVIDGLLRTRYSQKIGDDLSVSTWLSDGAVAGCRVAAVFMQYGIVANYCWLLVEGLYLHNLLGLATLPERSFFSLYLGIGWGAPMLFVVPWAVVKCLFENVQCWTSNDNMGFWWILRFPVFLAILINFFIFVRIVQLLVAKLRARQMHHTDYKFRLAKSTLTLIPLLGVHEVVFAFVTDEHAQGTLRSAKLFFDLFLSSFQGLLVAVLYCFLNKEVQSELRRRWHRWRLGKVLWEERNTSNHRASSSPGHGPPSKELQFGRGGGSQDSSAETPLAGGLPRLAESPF
Procedure for human GCGR: (§1) Activity of the incretin peptides or the conjugates at the Glucagon receptor (GCGR) and GLP-1 receptor (GLP1R) may be measured in a cAMP activity assay as follows.
(§2) Peptides are dissolved in 100% DMSO and serially diluted to generate 10 point titrations. The peptide solutions are then transferred into 384-well assay plates (150 nL/well). Assay ready frozen cells expressing human GLP1R or human GCGR are suspended in growth media consisting of DMEM medium (GIBCO), 10% FBS (GIBCO), 1×NEAA(GIBCO), 1×P/S (GIBCO), 10 μg/mL Blasticidin (GIBCO) and 200 μg/mL Hygromycin (GIBCO). […] The cell suspensions (15 μL) are then added to the assay plates containing the peptide solutions (30,000 cells/well for human GCGR; 10,000 cells/well for human GLP1R). The cells are incubated for one hour at room temperature in the dark.
(§3) Production of cAMP may be determined using HitHunterr cAMPXS kits (DiscoverX) following the manufacturer's protocol. The plates are incubated for overnight at room temperature in the dark. Luminescence may be measured using an EnVision Multilabel plate reader (Perkin Elmer). Native GLP-1 and Glucagon (Bachem) may be used as control peptides. EC50 values may be calculated using uses a 4 parameter logistic fit based on the Levenberg-Marquardt algorithm.
Procedure for human GLP1R: as §1, §2, §3

Usually EC50 stands for the concentration at which the effect is half-maximal. Regarding `CCCCCCCCCCCCCCCC(=O)N[C@@H](CCC(=O)N[C@@H](CCC(=O)NCCCC[C@H](NC(=O)[C@H](CC(=O)O)NC(=O)[C@H](CO)NC(=O)[C@@H](NC(=O)[C@H](Cc1ccccc1)NC(=O)[C@@H](NC(=O)CNC(=O)[C@H](CCC(N)=O)NC(=O)[C@@H](CO)NC(=O)[C@@H](N)Cc1c[nH]cn1)[C@@H](C)O)[C@@H](C)O)C(=O)N[C@@H](CO)C(=O)N[C@@H](CCCCN)C(=O)N[C@@H](Cc1ccc(O)cc1)C(=O)N[C@@H](CC(C)C)C(=O)N[C@@H](CC(=O)O)C(=O)N[C@@H](CCC(=O)O)C(=O)N[C@@H](CCCNC(=N)N)C(=O)N[C@@H](C)C(=O)N[C@@H](C)C(=O)N[C@@H](CCC(N)=O)C(=O)N[C@@H](CC(=O)O)C(=O)N[C@@H](Cc1ccccc1)C(=O)N[C@H](C(=O)N[C@@H](CCCCNC(=O)COCCOCCNC(=O)CCCCN=[N+]=[N-])C(=O)N[C@@H](Cc1c[nH]c2ccccc12)C(=O)N[C@@H](CC(C)C)C(=O)N[C@@H](CC(C)C)C(=O)N[C@@H](CC(=O)O)C(=O)N[C@H](C(N)=O)[C@@H](C)O)C(C)C)C(=O)O)C(=O)O` [PEP14], at human GCGR, the EC50 came to 0.05 nM and the GCGR/GLP1R ratio is 0.8. The compound further registered an EC50 at human GLP1R of 0.07 nM.
Taken in the same sequence, the figures for `CCCCCCCCCCCCCCCC(=O)N[C@@H](CCC(=O)N[C@@H](CCC(=O)NCCCC[C@H](NC(=O)[C@](C)(CC(=O)O)NC(=O)[C@H](CO)NC(=O)[C@@H](NC(=O)[C@H](Cc1ccccc1)NC(=O)[C@@H](NC(=O)CNC(=O)[C@H](CCC(N)=O)NC(=O)[C@@H](CO)NC(=O)[C@@H](N)Cc1c[nH]cn1)[C@@H](C)O)[C@@H](C)O)C(=O)N[C@@H](CO)C(=O)N[C@@H](CCCCN)C(=O)N[C@@H](Cc1ccc(O)cc1)C(=O)N[C@@H](CC(C)C)C(=O)N[C@@H](CC(=O)O)C(=O)N[C@@H](CCC(=O)O)C(=O)N[C@@H](CCCNC(=N)N)C(=O)N[C@@H](C)C(=O)N[C@@H](C)C(=O)N[C@@H](CCC(N)=O)C(=O)N[C@@H](CC(=O)O)C(=O)N[C@@H](Cc1ccccc1)C(=O)N[C@H](C(=O)N[C@@H](CCCCN=[N+]=[N-])C(=O)N[C@@H](Cc1c[nH]c2ccccc12)C(=O)N[C@@H](CC(C)C)C(=O)N[C@@H](CCS(C)(=O)=O)C(=O)N[C@@H](CC(=O)O)C(=O)N[C@H](C(N)=O)[C@@H](C)O)C(C)C)C(=O)O)C(=O)O` [PEP32] were 0.06 nM, 1.5 and 0.04 nM.
Taken in the same sequence, the figures for `CCCCCCCCCCCCCCCC(=O)N[C@@H](CCC(=O)N[C@@H](CCC(=O)NCCCC[C@H](NC(=O)[C@H](CC(=O)O)NC(=O)[C@H](CO)NC(=O)[C@@H](NC(=O)[C@H](Cc1ccccc1)NC(=O)[C@@H](NC(=O)CNC(=O)[C@H](CCC(N)=O)NC(=O)C(C)(C)NC(=O)[C@@H](N)Cc1c[nH]cn1)[C@@H](C)O)[C@@H](C)O)C(=O)N[C@@H](CO)C(=O)N[C@@H](CCCCN)C(=O)N[C@@H](Cc1ccc(O)cc1)C(=O)N[C@@H](CC(C)C)C(=O)N[C@@H](CC(=O)O)C(=O)N[C@@H](CCC(=O)O)C(=O)N[C@@H](CCCNC(=N)N)C(=O)N[C@@H](C)C(=O)N[C@@H](C)C(=O)N[C@@H](CCC(N)=O)C(=O)N[C@@H](CC(=O)O)C(=O)N[C@@H](Cc1ccccc1)C(=O)N[C@H](C(=O)N[C@@H](CCCCN=[N+]=[N-])C(=O)N[C@@H](Cc1c[nH]c2ccccc12)C(=O)N[C@@H](CC(C)C)C(=O)N[C@@H](CC(C)C)C(=O)N[C@@H](CC(=O)O)C(=O)NCC(=O)N[C@@H](CCCNC(=N)N)C(=O)NCC(N)=O)C(C)C)C(=O)O)C(=O)O` [PEP2] were 0.11 nM, 3.7 and 0.03 nM.
`CC(C)C[C@H](NC(=O)[C@H](Cc1ccc(O)cc1)NC(=O)[C@H](CCCCN)NC(=O)[C@H](CO)NC(=O)[C@H](CCCCN)NC(=O)[C@H](CC(=O)O)NC(=O)[C@H](CO)NC(=O)[C@@H](NC(=O)[C@H](Cc1ccccc1)NC(=O)[C@@H](NC(=O)CNC(=O)[C@H](CCC(N)=O)NC(=O)[C@@H](CO)NC(=O)[C@@H](N)Cc1c[nH]cn1)[C@@H](C)O)[C@@H](C)O)C(=O)N[C@@H](CC(=O)O)C(=O)N[C@@H](CCC(=O)O)C(=O)N[C@@H](CCCNC(=N)N)C(=O)N[C@@H](C)C(=O)N[C@@H](C)C(=O)N[C@@H](CCCCN=[N+]=[N-])C(=O)N[C@@H](CC(=O)O)C(=O)N[C@@H](Cc1ccccc1)C(=O)N[C@H](C(=O)N[C@@H](CCC(N)=O)C(=O)N[C@@H](Cc1c[nH]c2ccccc12)C(=O)N[C@@H](CC(C)C)C(=O)N[C@@H](CC(C)C)C(=O)N[C@@H](CC(=O)O)C(=O)N[C@H](C(N)=O)[C@@H](C)O)C(C)C` [PEP71]: at human GCGR, a half-maximal effect (EC50) was put at 0.12 nM and the GCGR/GLP1R ratio is reported as 2.0. For the same compound, the EC50 at human GLP1R (Table 5, incretin peptides, cAMP, read-out: hGLP1R EC50) stood at 0.06 nM.
In the case of `CCCCCCCCCCCCCCCC(=O)N[C@@H](CCC(=O)N[C@@H](CCC(=O)NCCCC[C@H](NC(=O)[C@H](CC(=O)O)NC(=O)[C@H](CO)NC(=O)[C@@H](NC(=O)[C@H](Cc1ccccc1)NC(=O)[C@@H](NC(=O)CNC(=O)[C@H](CCC(N)=O)NC(=O)C(C)(C)NC(=O)[C@@H](N)Cc1c[nH]cn1)[C@@H](C)O)[C@@H](C)O)C(=O)N[C@@H](CO)C(=O)N[C@@H](CCCCN)C(=O)N[C@@H](Cc1ccc(O)cc1)C(=O)N[C@@H](CC(C)C)C(=O)N[C@@H](CC(=O)O)C(=O)NC(C)(C)C(=O)N[C@@H](CCCNC(=N)N)C(=O)N[C@@H](C)C(=O)N[C@@H](C)C(=O)N[C@@H](CCC(N)=O)C(=O)N[C@@H](CC(=O)O)C(=O)N[C@@H](Cc1ccccc1)C(=O)N[C@H](C(=O)N[C@@H](CCCCN=[N+]=[N-])C(=O)N[C@@H](Cc1c[nH]c2ccccc12)C(=O)N[C@@H](CC(C)C)C(=O)N[C@@H](CCS(C)(=O)=O)C(=O)N[C@@H](CCCCN)C(=O)NCC(=O)N[C@@H](CCCNC(=N)N)C(=O)NCC(N)=O)C(C)C)C(=O)O)C(=O)O` [PEP3], at human GCGR, the EC50 worked out at 0.07 nM and the GCGR/GLP1R ratio is 4.6. On human GLP1R, this compound displayed an EC50 of 0.02 nM.
On the same counts, the results for `CCCCCCCCCCCCCCCC(=O)N[C@@H](CCC(=O)N[C@@H](CCC(=O)NCCCC[C@H](NC(=O)[C@H](CC(=O)O)NC(=O)[C@H](CO)NC(=O)[C@@H](NC(=O)[C@H](Cc1ccccc1)NC(=O)[C@@H](NC(=O)CNC(=O)[C@H](CCC(N)=O)NC(=O)C(C)(C)NC(=O)[C@@H](N)Cc1c[nH]cn1)[C@@H](C)O)[C@@H](C)O)C(=O)N[C@@H](CO)C(=O)N[C@@H](CCCCN)C(=O)N[C@@H](Cc1ccc(O)cc1)C(=O)N[C@@H](CC(C)C)C(=O)N[C@@H](CC(=O)O)C(=O)NC(C)(C)C(=O)N[C@@H](CCCNC(=N)N)C(=O)N[C@@H](C)C(=O)N[C@@H](C)C(=O)N[C@@H](CCC(N)=O)C(=O)N[C@@H](CC(=O)O)C(=O)N[C@@H](Cc1ccccc1)C(=O)N[C@H](C(=O)N[C@@H](CCCCN=[N+]=[N-])C(=O)N[C@@H](Cc1c[nH]c2ccccc12)C(=O)N[C@@H](CC(C)C)C(=O)N[C@@H](CCS(C)(=O)=O)C(=O)N[C@@H](CC(=O)O)C(=O)N[C@H](C(N)=O)[C@@H](C)O)C(C)C)C(=O)O)C(=O)O` [PEP10] are 0.02 nM, 0.7 and 0.03 nM.

The record behind these values is patent publication US20190175744A1, “INSULIN-INCRETIN CONJUGATES” (Merck Sharp & Dohme Corp., priority 2016, published 2019).
